Laboratory results from paper PMC9405070, “Metabolic and Structural Insights into Hydrogen Sulfide Mis-Regulation in Enterococcus faecalis” (Antioxidants, 2022).

How the values were obtained:
[1] = target: T1, Ef Pta / EfPta (phosphotransacetylase) (Enterococcus faecalis, UniProt A0ACD6TAM5); test: thioester formation at […] nm; type: biochemical; details: 5 mM acetylphosphate; 25 mM Tris-HCl, 40 mM KCl, pH 8.0, room temperature, anaerobic; 10 uM to 5 mM CoA
T1 construct: Ni-NTA and Superdex G200; C182 in CoA pocket, R319, S318, D325 in active site

[2] = target: Enterococcus faecalis coenzyme A persulfide (CoASSH) reductase (Enterococcus faecalis strain OG1RF); test: crystal structure; EfCoAPR as isolated from E. coli, with FAD and CoA (PAP moiety seen); crystals in 20% PEG 3350, 0.1 M Bis-Tris propane pH 6.50, 0.2 M sodium iodide; two molecules in the asymmetric unit; 2.05 Å
[3] = target: T1, Ef Pta / EfPta (phosphotransacetylase); test: acetyl-CoA yield by LC-MS after […] s; type: biochemical; details: 150 uM CoASSH as in situ mixture with equimolar CoASH, excess Na2S and CoA disulfide; 5 mM acetylphosphate, pH 8.0, room temperature, anaerobic
purified protein = substrate: CC(=O)SCCNC(=O)CCNC(=O)[C@H](O)C(C)(C)COP(=O)(O)OP(=O)(O)OC[C@H]1O[C@@H](n2cnc3c(N)ncnc32)[C@H](O)[C@@H]1OP(=O)(O)O; test: purified protein; type: biochemical, Enterococcus faecalis; details: 5 mM KH2PO4, 25 mM Tris-HCl, 40 mM KCl, pH 8.0, room temperature, anaerobic, 10 uM to 5 mM acetyl-CoA

## CoA
[1]
  Km: 69 µM

## Enterococcus faecalis coenzyme A persulfide (CoASSH) reductase
[2]
  stoichiometry N: 2

## CC(C)(COP(=O)(O)OP(=O)(O)OC[C@H]1O[C@@H](n2cnc3c(N)ncnc32)[C@H](O)[C@@H]1OP(=O)(O)O)[C@@H](O)C(=O)NCCC(=O)NCCSS [CoASSH]
[3]
  inhibition of acetyl-CoA formation: This inhibition of activity was due to CoASSH specifically

B1: Ef Pta / EfPta (phosphotransacetylase) (Enterococcus faecalis OG1RF) (protein)
chain: MYDGFCKYKTGGFIVELFDSLKFKVVRRNIKIVFPEATDPRILGAAARLKSDELVEPILIGDPTDIANAAMARGINTSNFIIINPNDYEKWDEMVEAFVERRNGKATKEDAEKILKDVNYFGTMLTYMGIADGMVSGAIHSTGDTVRPALQIIKTKPGVSRTSGAFLMIRGRDQERYLFSDCAINVNPTAQELAEIAVDSAKTAELFDIEPKVSLLSFSTKGSAKAPEVTKVAEATKIAQELAPEYAIDGELQFDASYVSSVAQLKAPNSKVAGEATVFVFPDLQSGNIGYKIAQRLGNFEAIGPILQGLNKPVSDLSRGANEEDVYKLSIITAAQTLMND
notes: Ni-NTA and Superdex G200; C182 in CoA pocket, R319, S318, D325 in active site
Purified protein
  Km: 57 (±16) μM
